US9255080B2, “Quinazolinedione derivatives as PARP inhibitors” (Janssen Pharmaceutica NV, priority 2004, dated 2016)

What was measured:
[1] = molecular target: T1, PARP-1 enzyme (Homo sapiens, UniProt P09874); assay: In vitro filtration assay for PARP-1 inhibitory activity; assay type: biochemical
Procedure: In Vitro Filtration Assay for PARP-1 Inhibitory Activity
Compounds of the present invention were tested in an in vitro filtration assay assessing PARP-1 activity (triggered in the presence of nicked DNA) by means of its histone poly (ADP-ribosyl)ation activity using [^32P]-NAD as ADP-ribosyl donor. The radioactive ribosylated histones were precipitated by trichloroacetic acid (TCA) in 96-well filterplates and the incorporated [^32P] measured using a scintillation counter
A mixture of histones (stock solution: 5 mg/ml in H2O), NAD^+ (stock solution: 100 mM in H2O), and [^32P]-NAD^+ in incubation buffer (50 mM Tris/HCl, pH 8; 0.2 mM DTT; 4 mM MgCl2) was made. A mixture of the PARP-1 enzyme (5-10 μg/ml) and nicked DNA was also made. The nicked DNA was prepared as described in the in vitro SPA for PARP-1 inhibitory activity. Seventy-five μl of the PARP-1 enzyme/DNA mixture together with 1 μl of compound in DMSO and 25 μl of histones-NAD^+/[^32P]-NAD^+ mixture was added per well of a 96-well filterplate (0.45 μm, supplier Millipore). The final concentrations in the incubation mixture were 2 μg/ml for the histones, 0.1 mM for the NAD^+, […] (0.5 μC) for the [^32P]-NAD^+ and 2 μg/ml for the nicked DNA. Plates were incubated for 15 min. at room temperature and the reaction was terminated by the addition of 10 μl ice cold 100% TCA followed by the addition of 10 μl ice-cold BSA solution (1% in H2O). The protein fraction was allowed to precipitate for 10 min. at 4° C. and plates were vacuum filtered. The plates were subsequently washed with, for each well, 1 ml of 10% ice cold TCA, 1 ml of 5% ice cold TCA and 1 ml of 5% TCA at room temperature. Finally 100 μl of scintillation solution (Microscint 40, Packard) was added to each well and the plates were transferred to a TopCountNXT™ (supplier: Packard) for scintillation counting and values were expressed as counts per minute (cpm). For each experiment, controls (containing PARP-1 enzyme and DMSO without compound), a blank incubation (containing DMSO but no PARP-1 enzyme or compound) and samples (containing PARP-1 enzyme and compound dissolved in DMSO) were run in parallel. All compounds tested were dissolved and eventually further diluted in DMSO. In first instance, compounds were tested at a concentration of 10^−5M. […] In each test, the blank value was subtracted from both the control and the sample values. The control sample represented maximal PARP-1 enzyme activity. For each sample, the amount of cpm was expressed as a percentage of the mean cpm value of the controls. […] Herein the effects of test compounds are expressed as pIC50 (the negative log value of the IC50-value).

[2] = molecular target: T1, PARP-1 enzyme; assay: In vitro scintillation proximity assay (SPA) for PARP-1 inhibitory activity; assay type: biochemical
Procedure: In Vitro Scintillation Proximity Assay (SPA) for PARP-1 Inhibitory Activity
Compounds of the present invention were tested in an in vitro assay based on SPA technology (proprietary to Amersham Pharmacia Biotech).
In principle, the assay relies upon the well established SPA technology for the detection of poly(ADP-ribosyl)ation of biotinylated target proteins, i.e histones. This ribosylation is induced using nicked DNA activated PARP-1 enzyme and [^3H]-nicotinamide adenine dinucleotide ([^3H]-NAD^+) as ADP-ribosyl donor.
As inducer of PARP-1 enzyme activity, nicked DNA was prepared. For this, 25 mg of DNA (supplier: Sigma) was dissolved in 25 ml DNAse buffer (10 mM Tris-HCl, pH 7.4; 0.5 mg/ml Bovine Serum Albumine (BSA); 5 mM MgCl2.6H2O and 1 mM KCl) to which 50 μl DNAse solution (1 mg/ml in 0.15 M NaCl) was added. After an incubation of 90 min. at 37° C., the reaction was terminated by adding 1.45 g NaCl, followed by a further incubation at 58° C. for 15 min. The reaction mixture was cooled on ice and dialysed at 4° C. for respectively 1.5 and 2 hours against 1.5 l of 0.2 M KCl, and twice against 1.5 l of 0.01 M KCl for 1.5 and 2 h respectively. The mixture was aliquoted and stored at −20° C. Histones (1 mg/ml, type II-A, supplier: Sigma) were biotinylated using the biotinylation kit of Amersham and stored aliquoted at −20° C. A stock solution of 100 mg/ml SPA poly(vinyl toluene) (PVT) beads (supplier: Amersham) was made in PBS. A stock solution of [^3H]-NAD^+ was made by adding 120 μl of [^3H]-NAD^+ (0.1 mCi/ml, supplier: NEN) to 6 ml incubation buffer (50 mM Tris/HCl, pH 8; 0.2 mM DTT; 4 mM MgCl2). A solution of 4 mM NAD^+ (supplier: Roche) was made in incubation buffer (from a 100 mM stock solution in water stored at −20° C.). The PARP-1 enzyme was produced using art known techniques, i.e. cloning and expression of the protein starting from human liver cDNA. Information concerning the used protein sequence of the PARP-1 enzyme including literature references can be found in the Swiss-Prot database under primary accession number P09874. Biotinylated histones and PVT-SPA beads were mixed and pre-incubated for 30 min. at room temperature. PARP-1 enzyme (concentration was lot dependent) was mixed with the nicked DNA and the mixture was pre-incubated for 30 min. at 4° C. Equal parts of this histones/PVT-SPA beads solution and PARP-1 enzyme/DNA solution were mixed and 75 μl of this mixture together with 1 μl of compound in DMSO and 25 μl of [^3H]-NAD^+ was added per well into a 96-well microtiterplate. The final concentrations in the incubation mixture were 2 μg/ml for the biotinylated histones, 2 mg/ml for the PVT-SPA beads, 2 μg/ml for the nicked DNA and between 5-10 μg/ml for the PARP-1 enzyme. After incubation of the mixture for 15 min. at room temperature, the reaction was terminated by adding 100 μl of 4 mM NAD^+ in incubation buffer (final concentration 2 mM) and plates were mixed.
The beads were allowed to sediment for at least 15 min. and plates transferred to a TopCountNXT™ (Packard) for scintillation counting, values were expressed as counts per minute (cpm). For each experiment, controls (containing PARP-1 enzyme and DMSO without compound), a blank incubation (containing DMSO but no PARP-1 enzyme or compound) and samples (containing PARP-1 enzyme and compound dissolved in DMSO) were run in parallel. All compounds tested were dissolved and eventually further diluted in DMSO. In first instance, compounds were tested at a concentration of 10^−5M. […] In each test, the blank value was subtracted from both the control and the sample values. The control sample represented maximal PARP-1 enzyme activity. For each sample, the amount of cpm was expressed as a percentage of the mean cpm value of the controls. […] Herein the effects of test compounds are expressed as pIC50 (the negative log value of the IC50-value).

[3] = [32P]-NAD, histones, nicked DNA, read-out: in vitro filter assay PARP-1 pIC50 (converted)
[4] = [3H]-NAD+, biotinylated histones, nicked DNA, read-out: in vitro SPA assay PARP-1 pIC50 (converted)

T1 sequence (P09874 whole entry): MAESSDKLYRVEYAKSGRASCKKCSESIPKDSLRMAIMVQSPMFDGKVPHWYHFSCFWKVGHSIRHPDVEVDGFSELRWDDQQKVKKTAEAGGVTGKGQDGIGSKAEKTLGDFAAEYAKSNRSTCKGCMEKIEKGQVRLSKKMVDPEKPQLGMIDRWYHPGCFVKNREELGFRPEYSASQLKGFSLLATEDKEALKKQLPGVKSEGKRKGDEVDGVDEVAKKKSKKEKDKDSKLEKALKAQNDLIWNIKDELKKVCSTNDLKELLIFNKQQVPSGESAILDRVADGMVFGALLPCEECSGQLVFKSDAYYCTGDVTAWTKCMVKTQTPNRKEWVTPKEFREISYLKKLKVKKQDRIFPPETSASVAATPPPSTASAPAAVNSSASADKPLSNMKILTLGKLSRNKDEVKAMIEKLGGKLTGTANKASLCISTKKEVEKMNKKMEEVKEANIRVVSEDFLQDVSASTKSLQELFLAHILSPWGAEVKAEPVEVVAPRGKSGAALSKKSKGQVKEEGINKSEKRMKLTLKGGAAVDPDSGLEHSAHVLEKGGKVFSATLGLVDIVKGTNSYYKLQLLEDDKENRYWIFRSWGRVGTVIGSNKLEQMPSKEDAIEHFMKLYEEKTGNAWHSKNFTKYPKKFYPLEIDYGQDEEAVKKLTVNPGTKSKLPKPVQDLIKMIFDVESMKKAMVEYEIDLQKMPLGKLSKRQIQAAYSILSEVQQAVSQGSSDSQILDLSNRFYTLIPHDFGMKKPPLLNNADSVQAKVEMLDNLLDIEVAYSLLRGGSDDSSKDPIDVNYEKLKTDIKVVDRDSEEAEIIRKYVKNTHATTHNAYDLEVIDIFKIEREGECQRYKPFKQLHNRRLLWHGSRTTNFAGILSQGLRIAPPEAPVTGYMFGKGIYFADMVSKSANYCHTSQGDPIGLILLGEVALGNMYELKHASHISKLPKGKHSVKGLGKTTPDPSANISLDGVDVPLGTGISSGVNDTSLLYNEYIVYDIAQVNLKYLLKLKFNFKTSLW

Row | IC50 [1, 3] [nM] | IC50 [2, 4] [nM] | Compound | IC50 [1] [nM] | IC50 [2] [nM]
1 | 2180 | 359 | O=c1[nH]c(=O)n(C2CCN(CC(O)C3CCc4ccccc4O3)CC2)c2ccccc12 (stereo in doubt) [Compound 9, 1-[1-[(2S)-2-[(2R)-3,4-dihydro-2H-1-benzopyran-2-yl]-2-hydroxyethyl]-4-piperidinyl]-2,4(1H,3H)-quinazolinedione] |  | 
2 | 1570 | 257 | O=C(CCCN1CCC(n2c(=O)[nH]c(=O)c3ccccc32)CC1)c1ccc(F)cc1 [Compound 2] |  | 
3 |  |  | O=c1[nH]c(=O)n(CCCN2CCC(c3c[nH]c4ccccc34)CC2)c2ccccc12 [Compound 3] | 1030 | 136
4 | 1740 | 348 | O=c1[nH]c(=O)n(C2CCN(CCCn3c(=O)[nH]c4ccccc43)CC2)c2ccccc12 [Compound 5] |  | 
5 | 1800 | 220 | O=C(c1ccc(F)cc1)C1CCN(CCn2c(=O)[nH]c(=O)c3ccccc32)CC1 [Compound 10, 1-[2-[4-(4-fluorobenzoyl)-1-piperidinyl]ethyl]-2,4-(1H,3H)-quinazolinedione] |  | 
6 | 2720 | 221 | O=C(c1ccc(F)cc1)C1CCN(CCCn2c(=O)[nH]c(=O)c3ccccc32)CC1 [Compound 11, 1-[3-[4-(4-fluorobenzoyl)-1-piperidinyl]propyl]-2,4-(1H,3H)-quinazolinedione] |  | 

Row | Compound | IC50 [1, 3] [nM] | IC50 [2, 4] [nM] | IC50 [1] [nM] | IC50 [2] [nM]
7 | O=c1[nH]c(=O)n(C2CCNCC2)c2ccccc12 [Compound 1] | 465 | 204 |  | 
8 | O=c1[nH]c(=O)n(CCN2CCC(O)(c3ccc(Cl)cc3)CC2)c2ccccc12 [Compound 6] | 1330 | 167 |  | 
9 | O=c1[nH]c(=O)n(CCCN2CCC(O)(c3ccc(Cl)cc3)CC2)c2ccccc12 [Compound 7] | 3240 | 292 |  | 
